In patent publication US12534497B2, “TEIPP peptide variant and use as a medicament” (Academisch Ziekenhuis Leiden (h.o.d.n. LUMC), priority 2019, dated 2026):
No end group written: not given here.

Assays:
[1] = test system: TCR-transduced CD8 T cells; test: Reactivity of TCR-transduced T cells to peptide pulsed EBV-JY cells (cytokine ELISA); type: cell-based, human; details: V-variant compared with S-variant peptide
Description: (B) TCRαβ gene transduction into T cells from a healthy donor. The introduced genes contain the murine TCR-αβ domain which enhances correct pairing of transgenic alpha and beta chains. Expression of this domain is confirmed in TCR-transduced T cells (on the horizontal axis). (C) Staining of TCRαβ transduced CD8 T cells with fluorescently labeled tetramers comprising the short natural peptide sequence (left panel) or the V-substituted peptide (right panel). (D) Functional reactivity of tetramer-enriched TCR-transduced T cells to peptide pulsed EBV-JY cells as measured by indicated cytokine production using ELISA. Means and SD are depicted from one out of three experiments with similar outcome. […] TCR-transduced T cells were stimulated with either the wild type version of two different melanoma cell lines, or their TAP knock out (TAP KO) variants generated by CRISPR/CAS9 technology. […] T cells only served as control.
Platinum-Amphotropic retrovirus production (Plat-A) retroviral packing cells (Cell Biolabs) were used for retrovirus production. Plat-A cells were seeded in 6-well plates and incubated overnight until fully attached. Next, the cells were transfected with 2 μg pMP71_1A8 TCR vector using lipofectamine 2000. Retrovirus supernatant was collected on 24 h and 48 h after transfection, spun down to remove cells, and stored in −80° C. […]

[2] = test system: LRPAP1-specific T cell clone
TAP KO melanoma cells = test: Recognition of TAP-deficient versus wild-type melanoma cells by peptide-induced T cell cultures; type: cell-based, human
Description: (A) Schematic overview of the tetramer pull-down approach and subsequent stimulation with short peptides. (B) Specificity of polyclonal […] peptide isolated T cells (upper panel) or […] peptide isolated T cells (bottom panel) as measured by staining of the T cells with two fluorescently labeled tetramers comprising the short natural sequence (horizontal axis) or the V-substituted peptide (vertical axis) by flow cytometry. (C) Geomeans for double tetramer positive cells on […] or […] peptide isolated T cells. (D) IFNy and GM-CSF production of polyclonal T cell bulks when stimulated with peptide pulsed EBV-JY cells as measured by ELISA. Means and SD are plotted of one out of three independent experiments. (E) Reactivity of these polyclonal T cell bulks when stimulated with wild-type and TAP knock out 518A2 melanoma cells (rendered TAP-deficient by CRISPR/CAS9 technology) or no tumor cells (control) as measured by indicated cytokine production using ELISA.
18-mer (also referred to as 18-meer) is SEQ ID NO: 4; 21-mer (also referred to as 21-meer) SEQ ID NO: 5; 24-mer (also referred to as 24-meer) is SEQ ID NO:6; and 27-mer (also referred to as 27-meer) is SEQ ID NO: 7. […]
To test the functionality of these T cell bulks, cytokine responses were measured towards both short peptides pulsed on immortalized HLA-A*0201 positive B cells (FIG. 2d). […]

LRPAP1-specific T cells = test: In vitro vaccination: SLP-loaded moDC co-cultured with tetramer-enriched autologous T cells, tetramer analysis; type: cell-based, human; details: 2 healthy blood donors stimulated 2-3 times with length variants
Method: In short, CD14 monocytes isolated from PBMC of healthy donors were differentiated into dendritic cells by culturing with GM-CSF and IL-4 for 6 days. On day 7, moDCs were plated in 96-well and incubated with 20 uM of V-SLP for 20 h. During the last 18 hours the DCs were matured with […] LPS. On day 8, the moDCs were washed and co-cultured with PBMC enriched for LRPAP1-specific T cells by […]-tetramers. (A) Schematic overview of the in vitro vaccination protocol using two V-variant peptides (C-terminal and N-terminal extended) as synthetic long peptides that require cross-presentation by monocyte-derived dendritic cells for priming of CD8 T cells. […] Control co-cultures were incubated without a peptide. (C) LRPAP1-specific T cell clones were generated via single cell FACS sort and their specificity to the wild type (S-variant) and the V-variant peptide was assessed using two fluorescently labeled tetramers comprising the short wild type sequence (horizontal axis) or the V-substituted peptide (vertical axis) by flow cytometry. Clone 1A8 was generated and described in a previous study^7, and used here as a reference clone. (D) LRPAP1-specific T cells clones were examined for recognition of TAP-deficient melanoma cell lines and their wild-type counterparts. Clones 2H11, 2B9 and 1A10 are shown. Means and SD are shown from one out of two experiments with similar outcome. Clone 1A8, shown in (E), served as positive control. (E) LRPAP1-specific T cells clones were examined for recognition of TAP-deficient melanoma cell lines and their wild-type counterparts. Clones 4B11, 1C5, and 1A8 are shown. Means and SD are shown from one out of two experiments with similar outcome. Clone 1A8, served as positive control. […]
HLA-A*02:01 positive PBMCs were isolated from buffy-coats from consented donors (Sanquin bloodbank, Amsterdam), using a gradient ficoll layer. […] T cell specificity and reactivity were analyzed by flow cytometry.
Tetramer staining on CD8 T cells was performed by 15 min incubation at 4° C. and washed three times with cold PBS/BSA prior to cell surface staining. […] T cell activation was measured by intracellular IFNγ staining (XMF1.2, Biolegend) using an ICS kit (BioLegend) according to manufactures protocol. moDCs were stained with anti-CD1a (clone HI149, BD), anti-CD14 (clone M5E2, BD), anti-CD80 (clone L307.4, BD), anti-CD83 (clone HB15e, BD), anti-CD86 (clone IT2.2, biolegend), and anti HLA-DR (clone G46-6, BD) antibodies for 30 min at 4° C. and washed three times with cold PBS/BSA. Samples were acquired using a BD LSRFortessa™ flow cytometry system and analyzed using FlowJo software (Tree Star). […]

HLA-A*0201 = HLA-A*0201 (Homo sapiens, UniProt P04439, D140Y/D185E/D98H/E176V/E277Q/G131W/G231S/I119V/I121R/I166T/I218V/L300P/L318F/N151K/N90K/P208A/P217A/Q86G/Q94H/R138H/R169H/T345S); details: previous studies; cited from earlier work
[3] = test system: monocyte-derived dendritic cells; test: Cross-presentation of long peptides by monocyte-derived dendritic cells, read out by LRPAP1-specific CD8 T cell clone cytokine release; type: cell-based, human; details: positive control on moDC
Method: (A) Monocyte-derived dendritic cells were incubated with indicated long peptides comprising the LRPAP1 epitope and co-cultured with a TEIPP-specific CD8 T cell clone 1A8. Non-natural flanking amino acids at the amino-terminus, or natural flanking amino acids at the carboxy-terminus or natural flanking amino acids at both ends were used to elongate the minimal epitope. GM-CSF secretion by the TEIPP-specific T cell clone was used to determine cross-presentation efficiency and pulsing with short peptide ([…]) was used as positive control. (B) Predicted HLA-A2*01 binding affinity scores of LRPAP1 peptides with substituted amino acids at the C-terminal p9 (MHCnet 4.0 algorithm). Binding affinity score was calculated on basis of the IC50 values and ranking percentage (see Table 2 for exact values). (C) Predicted proteasome cleavage activity for four different LRPAP1 peptides using NetCHop 3.1 algorithm. […] (D) Functional T cell avidity was measured as GM-CSF secretion by TEIPP-specific T cell clone stimulated with short peptide—pulsed EBV-JY cells in serial dilutions of the peptides. […] (E) EC50 values were calculated from values obtained in D (wherein EC values represent the dose of peptide resulting in half of the maximal response to that particular peptide variant). […] Cross-presentation of the indicated long peptides was determined by T cell clone. […]

Row | Sequence | EC50 [2] [µg/mL] | expansion of HLA-A*02:01 FLGPWPAAS-specific CD8+ T cells (LRPAP1-specific T cells) | further results
1 | FLGPWPAAV | 0.1 | – | cytokine responses of TCR-transduced T cells [1]: stronger cytokine responses; fold better T cell activation ([2]; V versus S at the C-terminus): 19 fold; cytokine response compared to the S-peptide ([2]; short peptide variants exogenously pulsed, titrated concentrations): more potent; recognition of TAP-negative versus wild type melanoma by peptide induced polyclonal T cell cultures (TAP KO melanoma cells; 518A2 melanoma cell line): preferred recognition of the TAP-negative tumor line
2 | RRVRSFLRGLPALLLLLLFLGPWPAAV [27-mer] | – | able to stimulate the expansion | –
3 | FLGPWPAAL [FLGPWPAAL] | 3.7 | – | –
4 | FLGPWPAAI | 0.7 | – | –
5 | LPALLLLLLFLGPWPAAV [18-mer] | – | able to stimulate the expansion | –
6 | LRGLPALLLLLLFLGPWPAAV [21-mer] | – | able to stimulate the expansion | –
7 | RSFLRGLPALLLLLLFLGPWPAAV [24-mer] | – | able to stimulate the expansion | recognition of TAP KO versus TAP proficient melanoma cell lines by long peptide stimulated T cell cultures (TAP KO melanoma cells; co-cultures with TAP proficient and TAP KO melanoma cell lines): preferentially recognize the TAP KO melanoma cells
8 | FLGPWPAAS | 1.9 | – | binding affinity onto HLA-A*0201 (HLA-A*0201): moderate; T cell stimulation by exogenous pulsing of short peptide [3]: did stimulate the T cells
